How the values were obtained:
[1] = biological target: T1, ENO1 (Enolase 1, α isoform of enolase) (Homo sapiens, UniProt P06733, K358R); assay: SPR steady-state affinity (Biacore T200, CM5 chip); format: binding
T1 construct: recombinant protein expressed in E. coli (printed for the mutants), amine-coupled to CM5 chip

[2] = biological target: T2, ENO1 (Enolase 1, α isoform of enolase) (Homo sapiens, UniProt P06733, K358Q); assay: SPR steady-state affinity (Biacore T200, CM5 chip); format: binding
T2 construct: recombinant protein expressed in E. coli (printed for the mutants), amine-coupled to CM5 chip
T2 sequence (P06733 2-434 K358Q): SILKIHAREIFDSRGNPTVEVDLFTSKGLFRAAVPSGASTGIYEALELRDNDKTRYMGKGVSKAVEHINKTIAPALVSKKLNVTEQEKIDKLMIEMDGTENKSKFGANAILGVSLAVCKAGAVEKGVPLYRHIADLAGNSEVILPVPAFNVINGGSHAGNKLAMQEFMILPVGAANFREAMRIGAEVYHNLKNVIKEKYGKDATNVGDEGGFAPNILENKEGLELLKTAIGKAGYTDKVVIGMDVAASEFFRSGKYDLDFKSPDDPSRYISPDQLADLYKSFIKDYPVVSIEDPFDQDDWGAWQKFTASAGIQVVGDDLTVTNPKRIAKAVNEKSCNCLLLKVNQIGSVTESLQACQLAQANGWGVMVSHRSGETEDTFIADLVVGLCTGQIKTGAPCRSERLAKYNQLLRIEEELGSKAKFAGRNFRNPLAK

T1 sequence (P06733 2-434 K358R): as the sequence (P06733 2-434 K358Q) above, with Q357R counted along it

Kd [1]: 2.61 µM
Kd [2]: 17.7 µM
SMILES: O=C(O)[C@@H](CO)OP(=O)(O)O [2‐PG]
